In patent US9717748B2, “Compositions and methods for treating an infection” (CMPD LICENSING, LLC, priority 2015, dated 2017):

How the values were obtained:
[1] = system: Neisseria gonorrhoeae; assay: Expected efficacy of antibiotic agents; conditions: Gram: neg
[2] = system: Shigella dysenteriae; assay: Expected efficacy of antibiotic agents; conditions: Gram: neg
[3] = system: Klebsiella oxytoca; assay: Expected efficacy of antibiotic agents; conditions: Gram: neg
[4] = system: Legionella pneumophila; conditions: Gram: neg
[5] = system: Proteus vulgaris; assay: Expected efficacy of antibiotic agents; conditions: Gram: neg
[6] = system: Shigella flexneri; assay: Expected efficacy of antibiotic agents; conditions: Gram: neg
[7] = system: Morganella morganii; assay: Expected efficacy of antibiotic agents; conditions: Gram: neg
[8] = system: Haemophilus ducreyi; assay: Expected efficacy of antibiotic agents; conditions: Gram: neg
[9] = system: Serratia marcescens; assay: Expected efficacy of antibiotic agents; conditions: Gram: neg
[10] = system: Klebsiella pneumoniae; assay: Expected efficacy of antibiotic agents; conditions: Gram: neg
[11] = system: Moraxella catarrhalis; assay: Expected efficacy of antibiotic agents; conditions: Gram: neg
[12] = system: Shigella sonnei; assay: Expected efficacy of antibiotic agents; conditions: Gram: neg
[13] = system: Pseudomonas fluorescens; assay: Expected efficacy of antibiotic agents; conditions: Gram: neg
[14] = system: Clostridium perfringens; conditions: Gram: anaer
[15] = system: Enterobacter sakazakii; assay: Expected efficacy of antibiotic agents; conditions: Gram: neg
[16] = system: Vibrio cholerae; assay: Expected efficacy of antibiotic agents; conditions: Gram: neg
[17] = system: Rickettsiae; conditions: Gram: neg
[18] = system: Providencia stuartii; assay: Expected efficacy of antibiotic agents; conditions: Gram: neg
[19] = system: Citrobacter diversus; assay: Expected efficacy of antibiotic agents; conditions: Gram: neg
[20] = system: Acinetobacter calcoaceticus; assay: Expected efficacy of antibiotic agents; conditions: Gram: neg
[21] = system: Escherichia coli; assay: Expected efficacy of antibiotic agents; conditions: Gram: neg
[22] = system: Pseudomonas aeruginosa; assay: Expected efficacy of antibiotic agents; conditions: Gram: neg
[23] = system: Citrobacter freundii; assay: Expected efficacy of antibiotic agents; conditions: Gram: neg
[24] = system: Yersinia pestis; conditions: Gram: neg
[25] = system: Acinetobacter lwoffii; assay: Expected efficacy of antibiotic agents; conditions: Gram: neg
[26] = system: Brucella species; conditions: Gram: neg
[27] = system: Bordetella pertussis; assay: Expected efficacy of antibiotic agents; conditions: Gram: neg
[28] = system: Campylobacter jejuni; assay: Expected efficacy of antibiotic agents; conditions: Gram: neg
[29] = system: Enterobacter cloacae; assay: Expected efficacy of antibiotic agents; conditions: Gram: neg
[30] = system: Proteus mirabilis; assay: Expected efficacy of antibiotic agents; conditions: Gram: neg
[31] = system: Corynebacterium urealyticum; assay: Expected efficacy of antibiotic agents; conditions: Gram: pos
[32] = system: Acinetobacter baumannii; assay: Expected efficacy of antibiotic agents; conditions: Gram: neg
[33] = system: Salmonella typhi; assay: Expected efficacy of antibiotic agents; conditions: Gram: neg
[34] = system: Enterobacter aerogenes; assay: Expected efficacy of antibiotic agents; conditions: Gram: neg
[35] = system: Francisella tularensis; conditions: Gram: neg
[36] = system: Haemophilus influenzae; assay: Expected efficacy of antibiotic agents; conditions: Gram: neg
[37] = system: Shigella boydii; assay: Expected efficacy of antibiotic agents; conditions: Gram: neg
[38] = system: Klebsiella (Calymmato-bacterium) granulomatis; assay: Expected efficacy of antibiotic agents; conditions: Gram: neg
[39] = system: Bartonella bacilliformis; assay: Expected efficacy of antibiotic agents; conditions: Gram: neg
[40] = system: Neisseria meningitidis; assay: Expected efficacy of antibiotic agents; conditions: Gram: neg
[41] = system: Corynebacterium jeikeium; assay: Expected efficacy of antibiotic agents; conditions: Gram: pos
[42] = system: Providencia rettgeri; assay: Expected efficacy of antibiotic agents; conditions: Gram: neg
[43] = system: Methicillin resistant staphaureus (MRSA); assay: Expected efficacy of antibiotic agents; conditions: Gram: pos
[44] = system: Bacteroides fragilis; assay: Expected efficacy of antibiotic agents; conditions: Gram: anaer
[45] = system: Chlamydia pneumoniae; assay: Expected efficacy of antibiotic agents; conditions: Gram: n/a
[46] = system: Streptococcus pyogenes; assay: Expected efficacy of antibiotic agents; conditions: Gram: pos
[47] = system: Chlamydia psittaci; conditions: Gram: n/a
[48] = system: Diphtheroids; assay: Expected efficacy of antibiotic agents; conditions: Gram: pos
[49] = system: Viridans group streptococci; assay: Expected efficacy of antibiotic agents; conditions: Gram: pos
[50] = system: Peptostreptococcus; assay: Expected efficacy of antibiotic agents; conditions: Gram: pos
[51] = system: Clostridium difficile; assay: Expected efficacy of antibiotic agents; conditions: Gram: anaer
[52] = system: Chlamydia trachomatis; assay: Expected efficacy of antibiotic agents; conditions: Gram: n/a
[53] = system: Streptococcus agalactiae; assay: Expected efficacy of antibiotic agents; conditions: Gram: pos
[54] = system: Staphylococcus aureus (MSSA); assay: Expected efficacy of antibiotic agents; conditions: Gram: pos
[55] = system: Enterococcus faecium; assay: Expected efficacy of antibiotic agents; conditions: Gram: pos
[56] = system: Enterococcus faecalis; assay: Expected efficacy of antibiotic agents; conditions: Gram: pos
[57] = system: Mycoplasma pneumoniae; assay: Expected efficacy of antibiotic agents; conditions: Gram: n/a
[58] = system: Staphylococcus epidermidis; assay: Expected efficacy of antibiotic agents; conditions: Gram: pos
[59] = system: Haemophilus parainfluenzae; assay: Expected efficacy of antibiotic agents; conditions: Gram: neg

## C/C(=C\C(=O)OCCCCCCCCC(=O)O)C[C@@H]1OC[C@H](C[C@@H]2O[C@H]2[C@@H](C)[C@H](C)O)[C@@H](O)[C@H]1O [Bactroban]
[1]
  Expected efficacy against Neisseria gonorrhoeae: no
[2]
  Expected efficacy against Shigella dysenteriae: no
[3]
  Expected efficacy against Klebsiella oxytoca: no
[4]
  Expected efficacy against Legionella pneumophila: no
[5]
  Expected efficacy against Proteus vulgaris: no
[6]
  Expected efficacy against Shigella flexneri: no
[7]
  Expected efficacy against Morganella morganii: no
[8]
  Expected efficacy against Haemophilus ducreyi: no
[9]
  Expected efficacy against Serratia marcescens: no
[10]
  Expected efficacy against Klebsiella pneumoniae: no
[11]
  Expected efficacy against Moraxella catarrhalis: no
[12]
  Expected efficacy against Shigella sonnei: no
[13]
  Expected efficacy against Pseudomonas fluorescens: no
[14]
  Expected efficacy against Clostridium perfringens: no
[15]
  Expected efficacy against Enterobacter sakazakii: no
[16]
  Expected efficacy against Vibrio cholerae: no
[17]
  Expected efficacy against Rickettsiae: no
[18]
  Expected efficacy against Providencia stuartii: no
[19]
  Expected efficacy against Citrobacter diversus: no
[20]
  Expected efficacy against Acinetobacter calcoaceticus: no
[21]
  Expected efficacy against Escherichia coli: no
[22]
  Expected efficacy against Pseudomonas aeruginosa: no
[23]
  Expected efficacy against Citrobacter freundii: no
[24]
  Expected efficacy against Yersinia pestis: no
[25]
  Expected efficacy against Acinetobacter lwoffii: no
[26]
  Expected efficacy against Brucella species: no
[27]
  Expected efficacy against Bordetella pertussis: no
[28]
  Expected efficacy against Campylobacter jejuni: no
[29]
  Expected efficacy against Enterobacter cloacae: no
[30]
  Expected efficacy against Proteus mirabilis: no
[31]
  Expected efficacy against Corynebacterium urealyticum: no
[32]
  Expected efficacy against Acinetobacter baumannii: no
[33]
  Expected efficacy against Salmonella typhi: no
[34]
  Expected efficacy against Enterobacter aerogenes: no
[35]
  Expected efficacy against Francisella tularensis: no
[36]
  Expected efficacy against Haemophilus influenzae: no
[37]
  Expected efficacy against Shigella boydii: no
[38]
  Expected efficacy against Klebsiella (Calymmato-bacterium) granulomatis: no
[39]
  Expected efficacy against Bartonella bacilliformis: no
[40]
  Expected efficacy against Neisseria meningitidis: no
[41]
  Expected efficacy against Corynebacterium jeikeium: no
[42]
  Expected efficacy against Providencia rettgeri: no

## CO/N=C(\C(=O)N[C@@H]1C(=O)N2C(C(=O)O)=C(CSc3nc(=O)c(=O)[nH]n3C)CS[C@H]12)c1csc(N)n1 [Ceftriaxone]
[1]
  Expected efficacy against Neisseria gonorrhoeae: yes
[43]
  Expected efficacy against Methicillin resistant staphaureus (MRSA): no
[44]
  Expected efficacy against Bacteroides fragilis: yes
[2]
  Expected efficacy against Shigella dysenteriae: yes
[4]
  Expected efficacy against Legionella pneumophila: no
[6]
  Expected efficacy against Shigella flexneri: yes
[45]
  Expected efficacy against Chlamydia pneumoniae: no
[8]
  Expected efficacy against Haemophilus ducreyi: yes
[10]
  Expected efficacy against Klebsiella pneumoniae: yes
[11]
  Expected efficacy against Moraxella catarrhalis: yes
[12]
  Expected efficacy against Shigella sonnei: yes
[46]
  Expected efficacy against Streptococcus pyogenes: yes
[15]
  Expected efficacy against Enterobacter sakazakii: yes
[47]
  Expected efficacy against Chlamydia psittaci: no
[16]
  Expected efficacy against Vibrio cholerae: no
[17]
  Expected efficacy against Rickettsiae: no
[18]
  Expected efficacy against Providencia stuartii: yes
[48]
  Expected efficacy against Diphtheroids: no
[20]
  Expected efficacy against Acinetobacter calcoaceticus: no
[49]
  Expected efficacy against Viridans group streptococci: yes
[22]
  Expected efficacy against Pseudomonas aeruginosa: no
[50]
  Expected efficacy against Peptostreptococcus: yes
[23]
  Expected efficacy against Citrobacter freundii: yes
[24]
  Expected efficacy against Yersinia pestis: no
[25]
  Expected efficacy against Acinetobacter lwoffii: no
[27]
  Expected efficacy against Bordetella pertussis: no
[51]
  Expected efficacy against Clostridium difficile: no
[28]
  Expected efficacy against Campylobacter jejuni: no
[29]
  Expected efficacy against Enterobacter cloacae: yes
[30]
  Expected efficacy against Proteus mirabilis: yes
[31]
  Expected efficacy against Corynebacterium urealyticum: no
[32]
  Expected efficacy against Acinetobacter baumannii: no
[33]
  Expected efficacy against Salmonella typhi: yes
[35]
  Expected efficacy against Francisella tularensis: no
[52]
  Expected efficacy against Chlamydia trachomatis: no
[53]
  Expected efficacy against Streptococcus agalactiae: yes
[54]
  Expected efficacy against Staphylococcus aureus (MSSA): yes
[38]
  Expected efficacy against Klebsiella (Calymmato-bacterium) granulomatis: yes
[55]
  Expected efficacy against Enterococcus faecium: no
[56]
  Expected efficacy against Enterococcus faecalis: no
[57]
  Expected efficacy against Mycoplasma pneumoniae: no
[58]
  Expected efficacy against Staphylococcus epidermidis: yes
[41]
  Expected efficacy against Corynebacterium jeikeium: no
[42]
  Expected efficacy against Providencia rettgeri: yes
[59]
  Expected efficacy against Haemophilus parainfluenzae: yes
